Experiments:
VDR-BRD9 interaction = biological target: T1, VDR-BRD9 interaction (Homo sapiens, UniProt P11473+Q9H8M2); assay: Co-immunoprecipitation of VDR and BRD9 in 293T cells; assay type: cell-based; conditions: proteomic and Western blot
T1 construct: endogenous BRD9 co-immunoprecipitates with HA-tagged VDR; expressed in transfected cells; host or cells: 293T
T1 sequence (P11473 1-427): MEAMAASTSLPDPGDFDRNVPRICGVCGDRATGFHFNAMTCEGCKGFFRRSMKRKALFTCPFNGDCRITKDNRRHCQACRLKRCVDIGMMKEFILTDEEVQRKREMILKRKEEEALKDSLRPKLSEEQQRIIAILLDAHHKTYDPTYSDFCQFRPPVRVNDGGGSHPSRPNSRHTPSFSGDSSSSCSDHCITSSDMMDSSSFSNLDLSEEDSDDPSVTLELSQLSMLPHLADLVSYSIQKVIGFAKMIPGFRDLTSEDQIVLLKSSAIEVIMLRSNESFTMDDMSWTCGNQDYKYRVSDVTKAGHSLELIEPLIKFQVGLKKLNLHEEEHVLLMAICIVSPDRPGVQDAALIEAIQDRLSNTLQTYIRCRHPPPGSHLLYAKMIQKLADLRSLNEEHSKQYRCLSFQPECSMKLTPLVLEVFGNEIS
T1 sequence (Q9H8M2 1-597): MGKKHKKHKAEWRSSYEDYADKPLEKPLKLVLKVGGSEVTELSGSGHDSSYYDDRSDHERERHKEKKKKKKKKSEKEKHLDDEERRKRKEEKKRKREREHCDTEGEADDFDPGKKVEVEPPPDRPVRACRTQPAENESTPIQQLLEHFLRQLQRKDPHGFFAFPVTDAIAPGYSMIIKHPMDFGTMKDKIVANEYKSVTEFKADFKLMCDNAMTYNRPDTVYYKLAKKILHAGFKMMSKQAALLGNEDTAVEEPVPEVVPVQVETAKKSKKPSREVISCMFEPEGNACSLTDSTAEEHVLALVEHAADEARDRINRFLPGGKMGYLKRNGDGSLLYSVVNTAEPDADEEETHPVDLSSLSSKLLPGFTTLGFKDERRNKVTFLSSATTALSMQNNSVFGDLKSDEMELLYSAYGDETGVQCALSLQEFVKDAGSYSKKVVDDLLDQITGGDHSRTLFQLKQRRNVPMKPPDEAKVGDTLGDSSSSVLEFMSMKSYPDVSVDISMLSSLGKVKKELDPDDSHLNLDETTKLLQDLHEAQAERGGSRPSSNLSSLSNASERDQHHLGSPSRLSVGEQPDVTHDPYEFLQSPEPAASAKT
Description: Briefly, cells are lysed using ice-cold lysis buffer (HEPES 20 mM pH8, EDTA 0.2 mM, NaCl 0.3 mM, NP40 0.5%, 15% glycerol) for 15 min, and after centrifuging the supernatant was collected. For HA- or Flag-tagged proteins, immunoprecipitations were performed using HA-magnetic beads (Pierce, P188836), or Flag-magnetic beads (Sigma, M8823) for 1.5 hr at 4° C. For other immunoprecipitations, primary antibodies were incubated with lysates for 2 hr followed by Protein A magnetic beads (Life Technologies, 10001D). After 3 washes with wash buffer (HEPES 10 mM pH8, EDTA 0.2 mM, NaCl 0.3 mM, NP40 0.1%, 15% glycerol), the beads were boiled with NuPage LDS sample buffer and the lysates were stored at −20° C.

INS1 cells = assay: H3K27Ac ChIP-seq enhancer landscape in IL1β-treated INS1 cells; assay type: cell-based, rat; conditions: 1 hour IL1β
From the text: The experimental procedure for ChIP was as previously described (Barish et al., 2010, Genes Dev 24:2760-5). Briefly, after fixation, nuclei from were isolated, lysed, and sheared with a Diagenode Bioruptor to yield DNA fragment sizes of 200-1,000 bp followed by immunoprecipitation.
The procedure was as previously described (Barish et al., 2010, Genes Dev 24:2760-5). Briefly, short DNA reads were aligned against the mouse mm9 or rat rn4 reference genome using the Illumina CASAVA v1.8.2. Reads were aligned using the Bowtie aligner, allowing up to two mismatches in the read. Only tags that map uniquely to the genome were considered for further analysis. Subsequent peak calling and motif analysis were conducted using HOMER, a software suite for ChIP-seq analysis. The methods for HOMER, described below, have been implemented and are available at http://homer.ucsd.edu. One tag from each unique position was considered to eliminate peaks resulting from clonal amplification of fragments during the ChIP-seq protocol. Peaks were identified by searching for clusters of tags within a sliding 200 bp window, requiring adjacent clusters to be at least 1 kb away from each other. The threshold for the number of tags that determine a valid peak was selected for an FDR <0.001, as empirically determined by repeating the peak finding procedure using randomized tag positions. […]

h-IAPP mouse islets = assay: Islets from aged h-IAPP transgenic mice treated ex vivo (qPCR); assay type: cell-based; conditions: 72 hr ex vivo, 15 month old mice
Description: Samples were run in triplicate and expression was normalized to the levels of the housekeeping controls Rplp0 (36b4) for human and mouse. Samples were analyzed by qPCR, using SYBR Green dye (Bio-rad). Statistical comparisons were made using Student's t test. Error bars are mean±SEM. Primers used are shown below: Mouse pancreatic islets were isolated as previously described (Yoshihara et al., 2010, Nat. Commun 1:127) with slight modification. Briefly, 0.5 mg/ml collagenase P (Roche REF 1213873001, diluted in HBSS buffer, GIBCO, 14170-112) was injected through the common bile duct, and the perfused pancreas dissected and incubated at 37° C. for 21 min. Digested exocrine cells and intact islets were separated via centrifugation (900×g for 15 min) over Histopaque-1077 (Sigma, H8889), and intact islets were manually selected. Human islets were provided by the Integrated Islets Distribution Program (see details below).

Row | Structure (SMILES) | interaction between VDR and BRD9 (VDR-BRD9 interaction) | reversal of IL1β-induced changes in H3K27 acetylation (INS1 cells) | inflammatory and stress markers (h-IAPP mouse islets)
1 | CCn1cc(-c2cccc(C(F)(F)F)c2)c2sc(C(=N)NC3CCS(=O)(=O)CC3)cc2c1=O [iBRD9] | reduced the interaction between VDR and BRD9 | partially reverse the impact of IL1β | 
2 | C=C1/C(=C\C=C2/CCC[C@]3(C)[C@@H]([C@H](C)/C=C/[C@@H](O)C4CC4)CC[C@@H]23)C[C@@H](O)C[C@@H]1O [Cal, calcipotriol] |  | partially reverse the impact of IL1β | reduced

Source: patent US11376264B2, “Use of bromodomain-containing protein 9 antagonists in combination with vitamin D receptor agonists in diabetes treatment” (Salk Institute for Biological Studies, priority 2017, dated 2022)
